One series concerns NUGC-3 cells. Briefly: Inhibition of cancer cell proliferation, total cellular protein (Sulphorhodamine B), NUGC-3. The note with it: Homo sapiens, 72 h, read-out: IC50 based on quantitation of total cellular protein after treatment. The method, then: (§1) To assess the antiproliferative response elicited by the compounds of the present invention in different tumour cell lines, total cellular protein in samples was quantified using the Sulphorhodamine B kit, TOX6, (Sigma-Aldrich). The protocol is based on quantitation of total cellular protein after indicated treatments and incubation times using the Sulphorhodamine B kit, TOX6, (Sigma-Aldrich).
(§2) Briefly, after protein precipitation using TCA according to the manufacturer's instructions, the sulphorhodamine dye (80 μL/well) was added to the air-dried wells. After 20 min incubation at room temperature, the dye was discarded and the samples were gently rinsed with 1% HOAc until clear. After air drying, bound dye was solubilised in 200 μL 10 mM Tris base, and the absorbance of dye was measured at 565 nm. To quantify growth, samples were collected also at t=0 h, and the resulting absorbance was set to 100%.
(§3) For experiments studying the effect of the herein described compounds per se, i.e. without combination treatment with cisplatin, the above protocol was applied with the following modifications. See Table II for details for each specific cell line. Briefly, cells were plated at a density of 6,000 cells/well 96-well Corning Costar tissue culture plates (CLS3596, Sigma-Aldrich) in assay medium and allowed to attach over night at 37° C., 5% CO2. Day 2 the compounds were diluted ½ in dose response curve mode in 100% DMSO, required volume was transferred to assay medium to a maximal DMSO concentration of 0.1%. The diluted compounds were added to the cells with a starting dose response concentration of 100 μM. All compounds were tested in duplicate plates.
(§4) After protein precipitation using TCA according to the manufacturer's instructions, the sulforhodamine B dye (50 μL/well) was added to the air-dried wells. After 20 min incubation at room temperature, the dye was discarded and the samples were gently rinsed with 1% HOAc until clear. After air drying, bound dye was solubilised in 100 μL 10 mM Tris base, and the absorbance of dye was measured at 530 nm and a background absorbance (subtract from the measurement at 530 nm) at 690 nm. To quantify growth, samples were collected also at t=0 h.

For a further series, the system named is PANC-1 cells. The experiment in a line: Inhibition of cancer cell proliferation, total cellular protein (Sulphorhodamine B), PANC-1. Conditions: Homo sapiens, 72 h, read-out: IC50 based on quantitation of total cellular protein after treatment. The method, then: as §1, §2, §3, §4
Another series has as its system F-2,6-P2 in NUGC-3 cells. Briefly: Quantification of F-2,6-P2 (Van Schaftingen coupled enzyme assay) in NUGC-3 cells. The class given is cell-based. The note with it: Homo sapiens, NUGC-3 cells, read-out: IC50 based on quantification of F-2,6-P2. From the text:
A method for quantification of F-2,6-P2 has been described by Van Schaftingen et al. (1982) Eur. J. Biochem. 129, 191-5. This sensitive assay is based on the potent activation of pyrophosphate dependent phosphofructokinase-1 (PPi-PFK) from potato tubers by F-2,6-P2. The use of a series of coupled enzymes leads to a consumption of NADH (nicotinamide adenine dinucleotide) that can be followed spectrophotometrically (an updated protocol is available in Van Schaftingen, (1984) Methods of Enzymatic Analysis (Bergmeyer, H. U., ed.), 3rd edn., vol. 6, pp. 335-341, Verlag Chemie, Weinheim). A protocol for measurements in 96-well microtiter plate format is also available (Bruni et al., (1989) Anal. Biochem. 178, 324-6).
The levels of F-2,6-P2 have been determined using the van Shaftingen assay as described in the protocol below, in six different cancer cell lines endogenously expressing varying levels of the different isoforms of PFK-2/BPase-2 (MCF-7, PANC-1, NUGC-3, SW480, SW620 and MIA PaCa-2). All reagents were purchased from commercial sources or prepared in-house.
Cell line C (NUGC-3, human gastric cancer cell line): NUGC-3 cells (JCRB0822), lot no. 04272009. Growth medium: RPMI1640, #R8758, Sigma-Aldrich; 10% FBS, Invitrogen, 10270-106 or Dulbecco's Modified Eagle's Medium, DMEM, VWR, LONZ12-604F; 10% FBS, Invitrogen, 10270-106. Cells were seeded at a concentration of ˜350 000 cells/mL in 100 μL growth medium (˜35 000 cells/well).
Starvation medium (cell lines A-F): DMEM/F12 without phenol red and glucose free, SVA, 991373; 0.25% FBS, Invitrogen, 10270-106.
Induction medium (cell lines A-F): DMEM/F12 without phenol red and glucose free, SVA, 991373; 0.25% FBS, Invitrogen, 10270-106 (same as starvation medium).
Cells were seeded in 96-well Corning Costar tissue culture plates (CLS3595, Sigma-Aldrich) using the concentrations specified above for the different cell lines A-F and incubated over night at 37° C. and 5% CO2. Row A in the plate was left empty and the cell lines added to rows B-H. Next day the growth medium was discarded and replaced with 100 μL starvation medium. The plates were incubated for 18 h at 37° C. and 5% CO2. After 18 h of starvation the cells were induced with 100 μL compound or control solutions. Compounds were either tested in two concentrations (50 μM and 10 μM) or in dose response curves starting from 50 μM. The final DMSO concentration in assay plates was 0.5%. Also a dose response curve of a reference inhibitor was included in row H on each plate. All compounds were tested in duplicate plates. Compounds (in 96 well CLS 3365, Sigma-Aldrich plates) were serial diluted in DMSO from 10 mM compound DMSO stock solutions with Janus (automated liquid handling workstation from PerkinElmer). Five μL were transferred to a Greiner deep well plate (736-0155, VWR) with 495 μL starvation medium. The final start concentration of compounds in the dilution plate was 100 μM, 1% DMSO. For compounds tested as single points, 10 mM compound solutions were diluted five fold in DMSO to 2 mM, followed by the transfer of 5 μL to separate dilution plates with 495 μL starvation medium. The final concentrations of compounds in these dilution plates were 100 or 20 μM, respectively, and final concentration of DMSO was 1%. The plates were incubated at 37° C. and 5% CO2 for 1 h, followed by the addition of 10 μL 20 mM D-glucose in starvation medium. Controls, with and without 1 mM glucose, were included in row B. The final assay volume was 210 μL per well. After 2 h of incubation at 37° C. and 5% CO2, the supernatants were discarded and the cells lysed by the addition of 25 μL 250 mM NaOH. The plates were incubated at 37° C. and 5% CO2 for 5 min followed by an addition of 75 μL MilliQ dH2O. The supernatants were further diluted with 210 μL MilliQ dH2O to a final concentration of 20 mM NaOH. 200 μL were transferred to NUNC 96-well plates (7322661, VWR) and the plates were sealed and stored at −20° C. until analysis. […]

The nature of series [1]: Cell toxicity, CellTiter-Blue Cell Viability Assay. Conditions: human, MIA PaCa-2 pancreatic carcinoma cells, MIA PaCa-2 cells, 72 h culture, read-out: IC50 based on cell toxicity. How it is done: The CellTiter-Blue® Cell Viability Assay provides a homogeneous, fluorometric method for estimating the number of viable cells present in multi-well plates. It uses the indicator dye resazurin to measure the metabolic capacity of cells. Viable cells retain the ability to reduce resazurin into resorufin, which is highly fluorescent.
Stock solutions (10 or 100 mM in DMSO) of compounds were serially diluted 1:2 in 11 concentrations. 25 nL/well (100 mM stock) or 50 nL/well (10 mM stock) were acoustically dispensed in assay plates with EDC acoustic dispenser. Final starting conc. in assay was 20 μM (0.2% DMSO) or 100 μM (0.1% DMSO) for test compounds.
Cells (MIA-PaCa-2; pancreatic carcinoma) were seeded in assay plates (384-well black/clear, Greiner #781091) pre-dispensed with compounds, 25 μL/well, and cultured for 72 h. The cell concentration was 750 cells/well. After 72 h culture, Celltiter Blue reagent was added (5 μL/well) and the plates were incubated for 2 h. The plates were read in an Envision fluorescence reader with Ex544 nm/Em590 nm. Results were calculated as % cytotoxicity compared to background (cells treated with 0.2% DMSO).
On the technique in general: Alamar Blue is a resazurin reagent that responds to reducing activity.

A further series deals with F-2,6-P2 in PANC-1 cells. Briefly: Quantification of F-2,6-P2 (Van Schaftingen coupled enzyme assay) in PANC-1 cells. The class given is cell-based, human. The note with it: Homo sapiens; PANC-1 cells; read-out: IC50 based on quantification of F-2,6-P2. The procedure, abridged: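 PANC-1 cells (~25 000/well) starved 18 h in glucose-free 0.25% FBS medium, treated 1 h with compound (50 and 10 μM, or dose response from 50 μM; 0.5% DMSO), then glucose added for 2 h at 37 °C. Cells lysed in NaOH; F-2,6-P2 quantified by PPi-PFK coupled NADH-consumption spectrophotometry.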

Each structure is given as a SMILES string. Where a name gives a salt, the structure may show the parent alone. Read-outs that look alike come from different tables or passages of the source.

In general, IC50 refers to the concentration needed to halve the response being measured. As to `O=C(OCCOc1ccccc1)c1ccc(NS(=O)(=O)c2cccc(-c3cc(F)ccc3O)c2)cc1O` [Example 203, 2-Phenoxyethyl 4-{[(5′-fluoro-2′-hydroxybiphenyl-3-yl)sulfonyl]amino}-2-hydroxybenzoate], the IC50 in the series on NUGC-3 cells was found to be 6.8 µM.
Consider `O=C(OCCCN1CCOCC1)c1ccc(NS(=O)(=O)c2cc(-c3ccc4c(c3)CCO4)c(Cl)s2)cc1O` [Example 163, 3-Morpholin-4-ylpropyl 4-({[5-chloro-4-(2,3-dihydro-1-benzofuran-5-yl)-2-thienyl]sulfonyl}amino)-2-hydroxybenzoate trifluoroacetate], for which the 50% inhibitory concentration (IC50) in the series on PANC-1 cells was 30.2 µM.
On the same count and under the same terms, the value for `CC(C)OC(=O)c1ccc(NS(=O)(=O)c2cc(Cl)c(Cl)s2)cc1O` [Example 68, Isopropyl 4-{[(4,5-dichloro-2-thienyl)sulfonyl]amino}-2-hydroxybenzoate] was 15.6 µM.
For the compound `CCC(COC)OC(=O)c1ccc(NS(=O)(=O)c2cc(Cl)cc(Cl)c2)cc1O` (stereo not shown) [Example 189, 1-(Methoxymethyl)propyl 4-{[(3,5-dichlorophenyl)sulfonyl]amino}-2-hydroxybenzoate], in the series on NUGC-3 cells, the 50% inhibitory concentration (IC50) was determined as 16.4 µM.
Turning to `CC(CCN1CCOCC1)OC(=O)c1ccc(NS(=O)(=O)c2cc(Cl)c(Cl)s2)cc1O` (stereo not shown) [Example 193], the concentration for half-maximal inhibition (IC50) with F-2,6-P2 in NUGC-3 cells was 1.2 µM.
Turning to `O=C(OCCCN1CCOCC1)c1ccc(NS(=O)(=O)c2cccc(-c3cc(F)ccc3O)c2)cc1O` [Example 160, 3-Morpholin-4-ylpropyl 4-{[(5′-fluoro-2′-hydroxybiphenyl-3-yl)sulfonyl]amino}-2-hydroxybenzoate trifluoroacetate], in series [1], the IC50 at 72 h was 3.6 µM.
For the compound `COC(=O)c1ccc(NS(=O)(=O)c2cc(Cl)c(Cl)s2)cc1O` [Example 27, Methyl 4-{[(4,5-dichloro-2-thienyl)sulfonyl]amino}-2-hydroxybenzoate], the IC50 is 0.8 µM in the series on F-2,6-P2 in PANC-1 cells and 0.9 µM with F-2,6-P2 in NUGC-3 cells.
For the compound `O=C(OCCCN1CCOCC1)c1ccc(NS(=O)(=O)c2c(Cl)sc(Cl)c2Br)cc1O` [Example 199, 3-Morpholin-4-ylpropyl 4-{[(4-bromo-2,5-dichlorothiophen-3-yl)sulfonyl]amino}-2-hydroxybenzoate trifluoroacetate], the 50% inhibitory concentration (IC50) with PANC-1 cells was 20.6 µM.
`CCC(COC(=O)c1ccc(NS(=O)(=O)c2cccc(-c3cc(F)ccc3O)c2)cc1O)OC` (stereo not shown) [Example 182, 2-Methoxybutyl 4-{[(5′-fluoro-2′-hydroxybiphenyl-3-yl)sulfonyl]amino}-2-hydroxybenzoate]: the half-maximal inhibitory concentration (IC50) at 72 h in series [1] was 6.3 µM.
For the compound `COC(=O)c1ccc(NS(=O)(=O)c2cccc(-c3cc(F)ccc3F)c2)cc1O` [Example 153, Methyl 4-{[(2′,5′-difluorobiphenyl-3-yl)sulfonyl]amino}-2-hydroxybenzoate], the IC50 with F-2,6-P2 in NUGC-3 cells came to 5.1 µM.
In the case of `Cn1c(COC(=O)c2ccc(NS(=O)(=O)c3cc(Cl)c(Cl)s3)cc2O)cnc1[N+](=O)[O-]` [Example 202, (1-Methyl-2-nitro-1H-imidazol-5-yl)methyl 4-{[(4,5-dichlorothiophen-2-yl)sulfonyl]amino}-2-hydroxybenzoate], the half-inhibitory concentration (IC50) with F-2,6-P2 in NUGC-3 cells (under hypoxia (0.6-1% O2)) was determined as 5.6 µM.
For `CC(C)(C)OC(=O)N1CCC(OC(=O)c2ccc(NS(=O)(=O)c3c(Cl)sc(Cl)c3Cl)cc2O)C1` (stereo not shown) [Example 205, tert-Butyl 3-[(2-hydroxy-4-{[(2,4,5-trichloro-3-thienyl)sulfonyl]amino}benzoyl)oxy]pyrrolidine-1-carboxylate], in series [1], the half-inhibitory concentration (IC50) at 72 h was 17.7 µM.
As for `COCC(COC)OC(=O)c1ccc(NS(=O)(=O)c2cc(Cl)cc(Cl)c2)cc1O` [Example 191, 2-Methoxy-1-(methoxymethyl)ethyl 4-{[(3,5-dichlorophenyl)sulfonyl]amino}-2-hydroxybenzoate], the IC50 with F-2,6-P2 in NUGC-3 cells is 1.4 µM.
The same measure, in the same setting: then `O=C(OCCCN1CCOCC1)c1ccc(NS(=O)(=O)c2cc(-c3ccc4c(c3)OCO4)c(Cl)s2)cc1O` [Example 162, 3-Morpholin-4-ylpropyl 4-({[4-(1,3-benzodioxol-5-yl)-5-chloro-2-thienyl]sulfonyl}amino)-2-hydroxybenzoate trifluoroacetate], with 2.8 µM.
As to `O=C(OCC1CCOC1)c1ccc(NS(=O)(=O)c2cc(Cl)c(Cl)s2)cc1O` (stereo not shown) [Example 75, Tetrahydrofuran-3-ylmethyl 4-{[(4,5-dichloro-2-thienyl)sulfonyl]amino}-2-hydroxybenzoate], the 50% inhibitory concentration (IC50) at 72 h in series [1] was found to be 25.3 µM.
